# From patent US9492471B2, “Methods of treating a disease or disorder associated with Bruton'S Tyrosine Kinase” (Celgene Avilomics Research, Inc., priority 2013, dated 2016)
# Read-outs that look alike come from different tables or passages of the source.
# Columns and labels:
# Assay in all cases: HotSpot kinase profiling
# Type in all cases: biochemical
# [1] = target: T1, DLK/MAP3K12 (Homo sapiens, UniProt Q12852)
# T1 construct: purchased Reaction Biology Corp
# T1 sequence (Q12852 1-859): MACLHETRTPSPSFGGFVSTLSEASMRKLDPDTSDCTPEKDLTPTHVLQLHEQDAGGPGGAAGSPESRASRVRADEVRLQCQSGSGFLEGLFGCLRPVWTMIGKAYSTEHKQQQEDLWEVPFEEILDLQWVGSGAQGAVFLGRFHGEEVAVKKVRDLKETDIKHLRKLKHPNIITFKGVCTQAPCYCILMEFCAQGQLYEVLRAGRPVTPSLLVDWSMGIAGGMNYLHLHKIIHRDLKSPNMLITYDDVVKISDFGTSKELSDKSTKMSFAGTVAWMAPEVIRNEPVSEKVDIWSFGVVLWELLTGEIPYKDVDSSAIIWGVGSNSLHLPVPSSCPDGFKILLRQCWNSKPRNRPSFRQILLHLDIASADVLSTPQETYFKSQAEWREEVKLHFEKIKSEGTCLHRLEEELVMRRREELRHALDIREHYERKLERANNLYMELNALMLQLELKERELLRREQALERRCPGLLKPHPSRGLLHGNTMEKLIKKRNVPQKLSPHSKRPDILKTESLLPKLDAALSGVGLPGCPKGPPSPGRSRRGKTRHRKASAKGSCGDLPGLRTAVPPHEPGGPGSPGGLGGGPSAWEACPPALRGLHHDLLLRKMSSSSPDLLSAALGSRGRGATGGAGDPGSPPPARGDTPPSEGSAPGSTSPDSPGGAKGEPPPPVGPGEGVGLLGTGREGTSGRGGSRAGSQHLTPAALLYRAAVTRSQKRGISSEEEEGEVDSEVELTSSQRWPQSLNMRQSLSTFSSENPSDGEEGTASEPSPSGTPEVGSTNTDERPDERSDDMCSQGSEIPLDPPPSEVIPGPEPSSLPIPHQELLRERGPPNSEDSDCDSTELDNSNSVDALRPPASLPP
# Method in brief: (§1)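 Radiometric kinase assay with P81 filter capture; each kinase was added to fresh substrate plus cofactors in reaction buffer and incubated 2 h at room temperature. Unreacted phosphate was washed off with 0.1% phosphoric acid before detection; percent inhibition is relative to DMSO control, averaged over replicates.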
# [2] = target: T2, NEK7 (Homo sapiens, UniProt Q8TDX7)
# T2 construct: purchased Reaction Biology Corp
# T2 sequence (Q8TDX7 whole entry): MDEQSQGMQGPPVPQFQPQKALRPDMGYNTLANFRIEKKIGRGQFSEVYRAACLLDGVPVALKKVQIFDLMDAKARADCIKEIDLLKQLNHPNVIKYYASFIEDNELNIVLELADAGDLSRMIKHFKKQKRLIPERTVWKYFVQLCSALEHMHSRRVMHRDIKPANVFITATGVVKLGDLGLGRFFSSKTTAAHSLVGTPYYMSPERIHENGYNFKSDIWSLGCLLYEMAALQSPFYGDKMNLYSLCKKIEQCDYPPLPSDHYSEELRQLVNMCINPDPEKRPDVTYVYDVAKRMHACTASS
# Method in brief: as §1
# [3] = target: T3, CDK4/cyclin D1 (Homo sapiens, UniProt P11802)
# T3 construct: purchased Reaction Biology Corp
# T3 sequence (P11802 whole entry): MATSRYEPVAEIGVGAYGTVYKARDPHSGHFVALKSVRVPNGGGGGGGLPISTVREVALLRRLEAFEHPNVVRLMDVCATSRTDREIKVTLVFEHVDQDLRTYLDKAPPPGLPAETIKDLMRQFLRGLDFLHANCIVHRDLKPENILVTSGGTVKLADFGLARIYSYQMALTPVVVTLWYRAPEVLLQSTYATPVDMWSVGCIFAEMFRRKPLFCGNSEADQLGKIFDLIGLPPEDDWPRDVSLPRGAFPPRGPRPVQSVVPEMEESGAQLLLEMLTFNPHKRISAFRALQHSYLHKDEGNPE
# T3 sequence (P24385 whole entry partner): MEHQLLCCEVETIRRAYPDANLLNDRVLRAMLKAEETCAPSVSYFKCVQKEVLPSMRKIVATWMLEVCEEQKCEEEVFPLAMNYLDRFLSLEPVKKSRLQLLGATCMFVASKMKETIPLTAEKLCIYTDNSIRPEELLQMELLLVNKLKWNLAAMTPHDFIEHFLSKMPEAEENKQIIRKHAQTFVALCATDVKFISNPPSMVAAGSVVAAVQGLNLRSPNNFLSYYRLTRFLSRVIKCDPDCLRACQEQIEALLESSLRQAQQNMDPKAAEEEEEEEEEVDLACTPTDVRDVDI
# Method in brief: as §1
# [4] = target: T4, P38d/MAPK13 (Homo sapiens, UniProt O15264)
# T4 construct: purchased Reaction Biology Corp
# T4 sequence (O15264 1-365): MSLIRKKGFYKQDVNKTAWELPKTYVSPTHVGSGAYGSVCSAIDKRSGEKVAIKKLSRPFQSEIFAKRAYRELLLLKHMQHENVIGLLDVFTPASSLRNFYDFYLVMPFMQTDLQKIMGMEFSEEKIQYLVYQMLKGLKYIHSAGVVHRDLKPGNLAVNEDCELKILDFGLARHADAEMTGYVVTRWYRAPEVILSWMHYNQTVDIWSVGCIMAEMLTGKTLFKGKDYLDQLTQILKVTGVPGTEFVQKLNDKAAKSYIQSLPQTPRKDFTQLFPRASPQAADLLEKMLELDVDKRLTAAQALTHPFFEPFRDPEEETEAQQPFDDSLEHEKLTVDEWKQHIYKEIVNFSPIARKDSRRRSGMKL
# Method in brief: as §1
# [5] = read-out: % Enzyme Activity (relative to DMSO controls) Run 1
# [6] = read-out: % Enzyme Activity (relative to DMSO controls) Run 2
structure (smiles),measurement,setting,value
C=CC(=O)Nc1cccc(Nc2nc(Nc3ccc(OCCOC)c(F)c3)ncc2F)c1 [Compound 2],inhibition at 3 µM,[1],22.8%
same,remaining activity at 3 µM,[1]; [5],74.2%
same,remaining activity at 3 µM,[1]; [6],80.2%
same,inhibition at 3 µM,[2],0.68%
same,remaining activity at 3 µM,[2]; [5],98.3%
same,remaining activity at 3 µM,[2]; [6],100%
same,inhibition at 3 µM,[3],4.07%
same,remaining activity at 3 µM,[3]; [5],95.6%
same,remaining activity at 3 µM,[3]; [6],96.3%
same,inhibition at 3 µM,[4],0.64%
same,remaining activity at 3 µM,[4]; [5],98.9%
same,remaining activity at 3 µM,[4]; [6],99.8%
